Reference: US10092578B2, “Active agents and their oligomers and polymers” (Polymerix Corporation, priority 2006, dated 2018)
Converted amounts (≈) assume the structure as drawn.

How the values were obtained:
[1] = Particle size determination by light scattering; type: physicochemical; conditions: for Average % of particles below 10 μm / Average % of particles below 100 μm / Average % of particles below 200 μm: average of 3 samples; for Volume Mean Particle Diameter: light scattering
From the text: Light scattering techniques were employed to assess the particle size distributions of samples of the compositions of Examples 1 and 2 and Comparative Example 1.

[2] = Salicylic acid release into artificial sweat; type: physicochemical; conditions: 35° C.
Description: FIG. 1 illustrates salicylic acid release at 35° C. Samples of Example 1 (square), Example 2 (triangle) and Comparative Example 1 (diamond) were placed in artificial sweat or artificial sweat plus proteins and incubated at 35° C. for 3 to 5 minutes, 1, 2, 4, 6 and 24 hours, rapidly filtered (0.22 μm filter) and analyzed for salicylic acid by HPLC.
Samples of Example 1 and 2 and Comparative Example 1 were placed in artificial sweat or artificial sweat plus proteins and incubated at 35° C. for 3 to 5 minutes, 1, 2, 4, 6 and 24 hours, rapidly filtered (0.22 μm filter) and analyzed for salicylic acid by HPLC.

[3] = tested on: human derived Staphylococcus epidermidis; assay: Minimum Inhibitory Concentration (MIC) assessment, Staph epidermidis; type: cell-based; conditions: for antibacterial activity (in words): MIC test, summary of Table 3; for MIC: Staphylococcus epidermidis, 24 hours, particle suspensions in water, read-out: MIC versus Staph epidermidis
Description: (§1) Samples of Examples 1 and 2 and Comparative Example 1 were evaluated in two different bacterial growth assays. The first test was a standard Minimum Inhibitory Concentration (MIC) assessment involving serial dilution of test compound particle suspensions in water. In this test, the samples were evaluated at 24 hours against human derived Staphylococcus epidermidis and Corynebacter sp. form organisms. The second test utilized a Biosys® system to assess the effect of the samples added as a dry powder directly to a nutrient broth containing either human derived Staph epidermidis or a mixed Coryne/Staph milieu. In the case of the Biosys test, the bacteria laced nutrient broth alone was used as the negative control.

[4] = tested on: Corynebacter sp. form organisms; assay: Minimum Inhibitory Concentration (MIC) assessment, Coryne form; type: cell-based; conditions: 24 hours, particle suspensions in water; read-out: MIC versus Coryne form
Description: as §1

[5] = tested on: human derived Staph epidermidis; assay: Biosys bacterial growth test, Staph epidermidis; type: cell-based, Staphylococcus epidermidis; conditions: for % Red (average reduction in bacterial growth rates): 24 hours
Description: as §1

[6] = tested on: mixed Coryne/Staph milieu; assay: Biosys bacterial growth test, mixed Coryne/Staph; type: cell-based, Corynebacter/Staph; conditions: for % Red (average reduction in bacterial growth rates): 24 hours
Description: as §1

[7] = Hydrolytic release of salicylic acid in buffer at 32° C., HPLC; type: physicochemical; conditions: acetate buffer pH 5.5, 32° C.
Description: Examples 1, 3 and 4 (both A & B) and Comparative Examples 1 and 2 were evaluated for rate of release of salicylic acid. Samples were hydrolyzed at 32° C. using acetate buffer (pH 5.5) as relevant condition for typical skin pH. The materials were placed in 50 mL centrifuge tubes for elution using conventional elution protocols, shaking the tubes in a thermostatic environment. Aliquots were taken from the tubes at periodic intervals and immediately placed in a vial and analyzed by HPLC as soon as they were removed from the hydrolysis vessel.
The respective salicylic acid release rates of the Example 4A and Example 4B at pH 5.5 are compared in FIG. 5. The rates of Example 4B at pH of 5.5 and 7.29 are compared in FIG. 6.

Row | Average % of particles below 10 μm [1] [%] | Average % of particles below 100 μm [1] [%] | Average % of particles below 200 μm [1] [%] | Volume Mean Particle Diameter [1] [μm] | salicylic acid release rate (in words) [2] | Salicylic Acid Release (Weight Percent of Maximum Release) ([2]; 0.05 hrs) | Salicylic Acid Release (Weight Percent of Maximum Release) ([2]; 1 hr) | Salicylic Acid Release (Weight Percent of Maximum Release) ([2]; 2 hrs) | Salicylic Acid Release (Weight Percent of Maximum Release) ([2]; 4 hrs) | Salicylic Acid Release (Weight Percent of Maximum Release) ([2]; 6 hrs) | Salicylic Acid Release (Weight Percent of Maximum Release) ([2]; 24 hrs) | MIC [3] [µg/mL] | Structure (SMILES) | antibacterial activity (in words) [3] | % Red (average reduction in bacterial growth rates) ([5]; 0.25 mg/ml) [%] | % Red (average reduction in bacterial growth rates) ([5]; 0.5 mg/ml) [%] | % Red (average reduction in bacterial growth rates) ([5]; 2.5 mg/ml) [%] | % Red (average reduction in bacterial growth rates) ([5]; 5 mg/ml) [%] | % Red (average reduction in bacterial growth rates) ([5]; 50 mg/ml) [%] | % Red (average reduction in bacterial growth rates) ([6]; 0.25 mg/ml) [%] | % Red (average reduction in bacterial growth rates) ([6]; 0.5 mg/ml) [%] | further results
1 | 32.1 | 96.03 | 99.99 | 28.85 | more moderate | 1.46 Weight Percent of Maximum Release | 4.93 Weight Percent of Maximum Release | 6.03 Weight Percent of Maximum Release | 6.81 Weight Percent of Maximum Release | 10.06 Weight Percent of Maximum Release | 26.42 Weight Percent of Maximum Release | > 1670 | O=C(CCCCC(=O)Oc1ccccc1C(=O)O)Oc1ccccc1C(=O)O [Comparative Example 1, Bis(2-carboxyphenyl)adipate, reference compound] | little or no | 0 | 57 | 63 | 100 | 100 | 0 | 5 | MIC [4]: > 1670 µg/mL; % Red (average reduction in bacterial growth rates) ([6]; 2.5 mg/ml): 6%; % Red (average reduction in bacterial growth rates) ([6]; 5 mg/ml): 100%; % Red (average reduction in bacterial growth rates) ([6]; 50 mg/ml): 100%; hydrolysis completion ([7]; in four days): about 90%
2 | 11.87 | 91.69 | 99.58 | 45.64 | rapid initial | 20.035 Weight Percent of Maximum Release | 45.525 Weight Percent of Maximum Release | 54.910 Weight Percent of Maximum Release | 59.795 Weight Percent of Maximum Release | 54.890 Weight Percent of Maximum Release | 64.520 Weight Percent of Maximum Release | 200 to 1000 (≈ 0.534 to 2.67 mM) | O=C(COCC(=O)Oc1ccccc1C(=O)O)Oc1ccccc1C(=O)O [Example 1, Bis(2-carboxyphenyl)diglycolate] | strongest | 10 | 95 | 100 | 100 | 100 | 66 | 29 | MIC [4]: ~200 µg/mL (≈ 0.534 mM); antibacterial activity (in words) ([5]; Biosys, summary of Table 4): strongest; % Red (average reduction in bacterial growth rates) ([6]; 2.5 mg/ml): 100%; % Red (average reduction in bacterial growth rates) ([6]; 5 mg/ml): 100%; % Red (average reduction in bacterial growth rates) ([6]; 50 mg/ml): 100%; antibacterial activity (in words) ([6]; Biosys, summary of Table 5): strongest; time until hydrolysis is complete [7]: 2.5 h
3 | 37.54 | 80.89 | 99.39 | 48.82 | rapid initial | 35.25 Weight Percent of Maximum Release | 47.44 Weight Percent of Maximum Release | 44.85 Weight Percent of Maximum Release | 46.07 Weight Percent of Maximum Release | 51.20 Weight Percent of Maximum Release | 58.23 Weight Percent of Maximum Release | ~2500 (≈ 5.98 mM) | O=C(COCCOCC(=O)Oc1ccccc1C(=O)O)Oc1ccccc1C(=O)O [Example 2, Bis(2-carboxyphenyl)-3,6-dioxaoctanedioate] | modest | 0 | 0 | 50 | 100 | 100 | 5 | 0 | Particle size distribution, Comments [1]: Bimodal size; % Red (average reduction in bacterial growth rates) ([6]; 2.5 mg/ml): 100%; % Red (average reduction in bacterial growth rates) ([6]; 5 mg/ml): 100%; % Red (average reduction in bacterial growth rates) ([6]; 50 mg/ml): 100%
